Laboratory results from patent US20130195798A1, “COMBINATION THERAPY FOR TREATMENT OF VIRAL INFECTIONS” (The Chancellors, Masters and Scholars of the University of …, priority 2006, published 2013).

Key:
ncp BVDV strain Pe515 = test: Real time RT-PCR of secreted viral RNA in supernatants of persistently infected MDBK cells (Example 3); format: cell-based, bovine viral diarrhea virus; conditions: iminosugar added to IFN/RBV from the beginning of treatment
Method: Madin-Darby bovine kidney cells (MDBK) MDBK cells were seeded at 1×10^6 cells/35 mm dish, infected with non-cytopathic (ncp) BVDV strain Pe515 (National Animal Disease Laboratory) at a MOI of 0.1, and passaged into fresh RPMI 1640 medium containing 10% (v/v) Foetal calf serum using a 1:8 dilution every three days. After achieving a stable infection IFN (1000 IU) and RBV (1 μM) (Sigma-Aldrich) were added to the cells; this passage was denoted passage 0 (P0). Simultaneously, a non-drug treated positive control sample and mock-infected (M.I.) negative controls cultured in the presence and absence of IFN and RBV (1000 IU and 1 μM, respectively) were prepared. Cells continued to be passaged every 3 days into fresh medium containing IFN and RBV. […] At each passage the combined supernatants of cultured cells from duplicate wells were harvested (to account for biological variation), levels of secreted viral RNA measured (by real time RT-PCR using technical duplicates) and the infectivity of the supernatant determined using an immunofluorescence (IF) based infectivity assay.
At each passage, a 500 μl aliquot of each supernatant harvested from the cultured cells was concentrated by ultrafiltration (10 kDa molecular weight cut off Centricon filter; Millipore, Mass., USA) to 140 μl. […] Real time RT-PCR was carried out using the Qiagen Quantitect RT-PCR kit. […]

cytopathic BVDV = conditions: higher NB-DNJ concentrations in combination with IFN; cited from earlier work

## CCCCN1C[C@H](O)[C@@H](O)[C@H](O)[C@H]1CO [NB-DNJ, N-butyl deoxynojirimycin]
Ncp BVDV strain Pe515
  additional effect on decrease of viral RNA levels (synergy): no synergy was observed
Cytopathic BVDV
  antiviral effect of the combination: greater than additive antiviral effect
